{
  "source": "patent US20220339122A1",
  "about": "“METHODS FOR THE TREATMENT OF DISEASES ASSOCIATED WITH DYSREGULATED ACTIVATION AND RECRUITMENT OF NEUTROPHILS” (Chang Gung University, priority 2021, published 2022)",
  "key": {"human neutrophils": {"system": "human neutrophils", "assay": "Neutrophil adhesion to bEnd.3 cells", "assay_type": "cell-based", "conditions": "1-10 μM bletinib; fMLF/CB", "description": "Human neutrophils (10^6 cells/mL) were labelled with Hoechst 33342 and then incubated with DMSO or Bletinib for 5 min. After centrifugation, the cells were resuspended and activated with 0.1 μM fMLF/1 μg/mL CB for 10 min before incubation with bEnd.3 cells at 37° C. for 30 min. After they were washed with HBSS, the cells were fixed with 4% paraformaldehyde and the neutrophils that adhered to the bEnd.3 cells were detected and quantified on a motorised inverted microscope (Olympus, Japan).\nAdhesion and transmigration are both crucial steps in the neutrophil recruitment cascade during inflammation. In this example, to examine whether bletinib would interfere the adhesion and transmigration process, human neutrophils (10^6 cells/mL) were first labeled with Hoechst 33342, then pre-treated with bletinib (1-10 μM) and followed by stimulation with fMLF, then incubated with bEnd.3 cells in 37° C. for 30 min. […] Furthermore, IL-8 served as a chemotactic factor for the attraction of neutrophils."}, "Lyn": {"target": "Lyn (Homo sapiens, UniProt P07948)", "sequence (P07948 whole entry)": "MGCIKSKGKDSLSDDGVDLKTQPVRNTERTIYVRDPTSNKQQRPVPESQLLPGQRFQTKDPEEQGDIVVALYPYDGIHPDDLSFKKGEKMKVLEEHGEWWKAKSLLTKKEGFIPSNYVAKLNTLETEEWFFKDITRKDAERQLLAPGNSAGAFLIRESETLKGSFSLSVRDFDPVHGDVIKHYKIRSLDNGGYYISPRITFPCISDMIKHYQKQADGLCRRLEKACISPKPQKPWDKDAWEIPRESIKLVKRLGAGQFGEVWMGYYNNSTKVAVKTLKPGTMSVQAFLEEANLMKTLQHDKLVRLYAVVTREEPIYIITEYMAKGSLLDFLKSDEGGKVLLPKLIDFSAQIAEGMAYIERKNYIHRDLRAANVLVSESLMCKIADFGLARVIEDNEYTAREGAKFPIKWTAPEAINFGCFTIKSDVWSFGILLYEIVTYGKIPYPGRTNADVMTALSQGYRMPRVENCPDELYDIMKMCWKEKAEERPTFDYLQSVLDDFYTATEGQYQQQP", "assay": "Cell-free ADP-Glo kinase assay, Lyn", "assay_type": "biochemical", "conditions": "1-10 μM bletinib or 0.1-3 μM PP2; 125 μM ATP; concentration-dependent", "description": "The kinase activity of SFKs was assessed using an ADP-Glo kinase assay kit (Promega, Fitchburg, USA) according to manufacturer instructions. […] The ADP-Glo reagent was used to end the kinase reaction and remove the remnant ATP; next, the kinase, which converted ADP to ATP, detection reagent was added and incubated for 30 min. Luciferin/luciferase luminescence was determined on an Infinite 200 Pro (Tecan, Switzerland)."}, "Akt (S473)": {"system": "Akt (S473)", "assay": "Immunoblotting of neutrophil lysates, Akt phosphorylation", "assay_type": "cell-based, human", "conditions": "10 μM bletinib; 0.1 μM fMLF", "description": "Neutrophils incubated with bletinib or DMSO at 37° C. for 5 min were stimulated with 0.1 μM fMLF for 30 s. The proteins were separated from neutrophil lysates through electrophoresis (12% sodium dodecyl sulphate-polyacrylamide gel electrophoresis) and then transferred to nitrocellulose membranes. The target proteins were identified through immunoblotting with specific antibodies against p38, p-p38, Akt, p-Akt S473, ERK, p-ERK, INK, p-JNK, Src, p-SFKs Y416, p-Src Y416, Lyn, p-Lyn (Y396), Fgr, p-Fgr (Y412), Hck, p-Hck (Y410), Btk, p-Btk Y223, Vav, and p-Vav (Y174) as well as with HRP-conjugated secondary anti-rabbit antibody (Cell Signaling Technology). The signal intensity was detected and quantified using the UVP BioSpectrum Imaging System (Analytik Jena, USA)."}, "CD18 (integrin β2)": {"system": "CD18 (integrin β2)", "assay": "Surface CD18 expression, flow cytometry", "assay_type": "cell-based, human", "conditions": "1-10 μM bletinib; 0.1 μM fMLF/CB", "description": "Neutrophils (5×10^5 cells/mL) were incubated with bletinib or DMSO for 5 min and then activated through incubation with 0.1 μM fMLF/1 μg/mL CB for 5 min. After centrifugation at 200×g for 8 min at 4° C., the cells were resuspended in 5% bovine serum albumin with FITC-conjugated antibodies against CD18 or CD11b on ice in the dark for 15 min. The fluorescent intensity was then analysed through fluorescence-activated cell sorting."}},
  "data": [
    {"smiles": "COc1cc(O)cc(CCc2c(Cc3ccc(O)cc3)ccc(O)c2Cc2ccc(O)cc2)c1", "note": "[bletinib, 3,3′-dihydroxy-2′,6′-bis(p-hydroxybenzyl)-5-methoxybibenzyl]", "values": [
      {"measurement": "adhesion function of fMLF-activated neutrophils (adhered on bEnd.3 cells)", "setting": "human neutrophils", "result": "inhibited"},
      {"measurement": "kinase activity of Lyn", "setting": "Lyn", "result": "inhibited"},
      {"measurement": "phosphorylation of Akt", "setting": "Akt (S473)", "result": "but not"},
      {"measurement": "expression of CD18 in fMLF-stimulated human neutrophils", "setting": "CD18 (integrin β2)", "result": "significantly attenuated"}
    ]}
  ]
}
